From patent publication US12084420B2, “Indoline compounds for inhibiting KIF18A” (Volastra Therapeutics, Inc., priority 2021, dated 2024)
pIC50, pKi: −log10 of the molar value. Read-outs that look alike come from different tables or passages of the source.

Legend:
HCC15 cells = test: Cell viability of KIF18a-sensitive cell lines, HCC15 (Cell Titre-Glo, 7 days); format: cell-based; details: read-out: HCC-15 IC50
Protocol: Cell Viability of KIF18a-Sensitive Cell Lines
Cell lines were seeded as follows 24 hours before compound treatment: HCC15 (Korean Cell Line Bank) 600 cell/well, 95 μL of RPMI-1640 media supplemented with 100 units/mL penicillin, 100 units/mL streptomycin and 10% FBS; NIH:OVCAR-3 (ATCC), 1000 cell/well, 95 μL of RPMI-1640 media supplemented with 100 units/mL penicillin, 100 units/mL streptomycin, 0.01 mg/mL bovine insulin, and 20% FBS; JIMT-1 (Addexbio) 1000 cell/well, 95 μL of DMEM media supplemented with 100 units/mL penicillin, 100 units/mL streptomycin, and 10% FBS.
Test compounds were added to cells in a 20× dilution scheme by adding 5 μL of serially diluted compound to the plate, and the treated cells were incubated for an additional 7 days in a 37° C., 5% CO2 incubator. DMSO was used as the negative control (0% effect), and wells omitting cells were used as the positive control (100% effect). The cells were incubated for seven days, and cell viability determined via the Promega Cell Titre-Glo® Assay kit. Luminescence units were converted to ATP concentrations via an ATP standard curve (10 point, 2-fold dilution from 5 uM). % Inhibition was calculated for each well as: ([max−min]−[test−min])/[max−min]. IC50 values were calculated from concentration vs. % Inhibition data via a four-parameter variable slope model.

[1] = target: KIF18a-Microtubule Complex (Homo sapiens (Human), UniProt Q8NI77); test: Binding kinetics to KIF18a-microtubule complex (global progress curve analysis); details: for kon (on-rate from binding kinetics assay) / koff (off-rate from binding kinetics assay): global progress curve analysis; for pKi: read-out: KI (determined from binding kinetic assay koff/kon), koff/kon; for koff: read-out: koff (off-rate from binding kinetics assay)
Chain of KIF18a-Microtubule Complex (Q8NI77 whole entry, looked up): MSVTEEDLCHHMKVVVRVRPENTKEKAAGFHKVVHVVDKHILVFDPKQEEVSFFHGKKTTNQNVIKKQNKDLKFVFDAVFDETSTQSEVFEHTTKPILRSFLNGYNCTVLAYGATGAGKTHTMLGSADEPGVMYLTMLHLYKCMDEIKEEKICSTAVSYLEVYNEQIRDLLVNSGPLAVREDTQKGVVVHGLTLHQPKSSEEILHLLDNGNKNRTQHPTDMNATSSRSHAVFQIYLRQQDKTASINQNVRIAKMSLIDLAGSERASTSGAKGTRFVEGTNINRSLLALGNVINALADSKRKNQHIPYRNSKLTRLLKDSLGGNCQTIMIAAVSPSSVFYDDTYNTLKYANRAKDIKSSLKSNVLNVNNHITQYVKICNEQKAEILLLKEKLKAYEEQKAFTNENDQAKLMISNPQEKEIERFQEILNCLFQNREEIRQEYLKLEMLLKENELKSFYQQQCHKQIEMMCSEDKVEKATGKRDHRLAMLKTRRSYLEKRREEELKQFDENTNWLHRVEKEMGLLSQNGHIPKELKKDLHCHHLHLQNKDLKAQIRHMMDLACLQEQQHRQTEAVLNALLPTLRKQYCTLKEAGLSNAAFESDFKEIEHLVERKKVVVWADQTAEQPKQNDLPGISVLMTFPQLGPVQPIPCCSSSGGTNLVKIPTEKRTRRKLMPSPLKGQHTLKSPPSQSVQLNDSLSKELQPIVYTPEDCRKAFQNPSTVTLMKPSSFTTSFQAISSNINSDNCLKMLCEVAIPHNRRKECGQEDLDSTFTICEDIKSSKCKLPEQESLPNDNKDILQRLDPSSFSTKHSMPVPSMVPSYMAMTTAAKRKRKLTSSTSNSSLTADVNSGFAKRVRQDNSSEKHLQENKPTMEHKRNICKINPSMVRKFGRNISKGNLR
Chain of KIF18a-Microtubule Complex (Q2XVP4 whole entry partner, looked up): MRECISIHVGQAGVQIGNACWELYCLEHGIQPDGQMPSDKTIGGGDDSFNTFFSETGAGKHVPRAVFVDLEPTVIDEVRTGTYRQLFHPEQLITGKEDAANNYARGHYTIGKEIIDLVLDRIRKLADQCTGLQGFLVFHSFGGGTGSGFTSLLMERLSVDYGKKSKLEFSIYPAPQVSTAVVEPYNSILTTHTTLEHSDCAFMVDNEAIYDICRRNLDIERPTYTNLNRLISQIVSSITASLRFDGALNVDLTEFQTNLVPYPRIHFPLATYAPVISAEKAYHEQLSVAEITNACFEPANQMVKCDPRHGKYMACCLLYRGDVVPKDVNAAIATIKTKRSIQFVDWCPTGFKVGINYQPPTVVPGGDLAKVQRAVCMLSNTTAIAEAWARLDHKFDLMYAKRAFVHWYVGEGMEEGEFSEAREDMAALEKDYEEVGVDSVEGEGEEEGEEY
Chain of KIF18a-Microtubule Complex (P02554 whole entry partner, looked up): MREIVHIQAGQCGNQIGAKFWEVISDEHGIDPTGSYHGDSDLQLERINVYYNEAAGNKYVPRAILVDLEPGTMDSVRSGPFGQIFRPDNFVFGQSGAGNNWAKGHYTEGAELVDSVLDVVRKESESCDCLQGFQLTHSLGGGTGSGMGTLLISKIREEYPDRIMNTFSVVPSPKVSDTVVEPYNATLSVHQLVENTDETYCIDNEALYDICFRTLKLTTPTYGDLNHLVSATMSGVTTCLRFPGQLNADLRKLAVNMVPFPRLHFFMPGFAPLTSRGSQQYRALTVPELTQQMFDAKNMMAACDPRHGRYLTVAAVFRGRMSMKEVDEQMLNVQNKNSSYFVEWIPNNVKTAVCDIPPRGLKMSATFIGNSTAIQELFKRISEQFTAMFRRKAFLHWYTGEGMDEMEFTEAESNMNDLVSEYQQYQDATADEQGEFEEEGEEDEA
Protocol: Binding Kinetics to KIF18a-Microtubule Complex
Compound binding kinetics parameters (kon and koff) were determined by the method of global progress curve analysis (GPCA). […] ADP product levels were determined by the Promega® ADP-Glo assay. The time/dose-dependent progress curves were then globally fit to a Michaelis-Menten kinetics model with 1-step slow binding inhibition to derive both on-rate kon and off-rate koff values (Zhang, R., Wong, K. (2017): “High performance enzyme kinetics of turnover, activation and inhibition for translational drug discovery”, Expert Opinion on Drug Discovery, 2017 January; 12(1):17-37. doi: 10.1080/17460441.2017.1245721).

hKIF18A (1-374) = hKIF18A (1-374) (Homo sapiens (Human), UniProt Q8NI77); test: Inhibition of KIF18A microtubule-dependent ATPase activity (ADP-Glo)
Chain of hKIF18A (1-374) (Q8NI77 whole entry, looked up): as the sequence (Q8NI77 whole entry, looked up) above
Chain of hKIF18A (1-374) (Q2XVP4 whole entry partner, looked up): as the sequence (Q2XVP4 whole entry partner, looked up) above
Chain of hKIF18A (1-374) (P02554 whole entry partner, looked up): as the sequence (P02554 whole entry partner, looked up) above

[2] = HCC15, 168 h, HCC-15 cells, 7 days, Cell Titre-Glo
[3] = KIF18A microtubule-dependent ATPase activity, biochemical assay
[4] = HCC-15 cells, 7 days, Cell Titre-Glo

| SMILES | pIC50 (HCC15 cells; [2]) | pIC50 (hKIF18A (1-374); [3]) | further results |
| --- | --- | --- | --- |
| CS(=O)(=O)Nc1ccc2c(c1)C1(CCCCC1)CN2C(=O)c1cccc(S(=O)(=O)N2CCC(F)(F)CC2)c1 [Compound 19, N-(1′-(3-((4,4-difluoropiperidin-1-yl)sulfonyl)benzoyl)spiro[cyclohexane-1,3′-indolin]-5′-yl)methanesulfonamide] | 7.04 | 7.49 | kon (on-rate from binding kinetics assay) [1]: 14200 M⁻¹ s⁻¹; disc. t1/2 (dissociation half-life ln(2)/koff) [1]: 7.2 h; pKi [1]: 8.74; koff [1]: 2.67e-05 s⁻¹ |
| CS(=O)(=O)Nc1ccc2c(c1)C1(CCC3(CC3)CC1)CN2C(=O)c1cccc(S(=O)(=O)N2CCC(F)(F)CC2)c1 [Compound 28, N-(1″-(3-((4,4-difluoropiperidin-1-yl)sulfonyl)benzoyl)dispiro[cyclopropane-1,1′-cyclohexane-4′,3″-indolin]-5″-yl)methanesulfonamide] | 7.62 | 8.00 |  |
| CC(C)(C)NS(=O)(=O)c1cccc(C(=O)N2C[C@]3(CC[C@@H](C)CC3)c3cc(NS(C)(=O)=O)ccc32)c1 [Compound 140b] |  |  | pIC50 (HCC15 cells; [4]): 7.35; koff (off-rate from binding kinetics assay) [1]: 2.22e-05 s⁻¹; kon (on-rate from binding kinetics assay) [1]: 16100 M⁻¹ s⁻¹; disc. t1/2 (dissociation half-life ln(2)/koff) [1]: 8.7 h; pKi [1]: 8.85 |
| CS(=O)(=O)Nc1ccc2c(c1)C1(CCC3(CC3)CC1)CN2C(=O)c1cccc(S(=O)(=O)N2CCCC2)c1 [Compound 21, N-(1″-(3-(pyrrolidin-1-ylsulfonyl)benzoyl)dispiro[cyclopropane-1,1′-cyclohexane-4′,3″-indolin]-5″- yl)methanesulfonamide] | 7.26 | 7.72 |  |
| CC(C)(C)NS(=O)(=O)c1cccc(C(=O)N2C[C@]3(CC[C@H](C)CC3)c3cc(NS(C)(=O)=O)ccc32)c1 [Compound 140a] |  |  | pIC50 (HCC15 cells; [4]): 8.00; koff (off-rate from binding kinetics assay) [1]: 6.67e-06 s⁻¹; kon (on-rate from binding kinetics assay) [1]: 13100 M⁻¹ s⁻¹; disc. t1/2 (dissociation half-life ln(2)/koff) [1]: 29 h; pKi [1]: 9.30 |
| CS(=O)(=O)Nc1ccc2c(c1)C1(CCC3(CC3)CC1)CN2C(=O)c1cccc(S(=O)(=O)NC2CC=CC2)c1 [Compound 172, N-(cyclopent-3-en-1-yl)-3-(5″- (methylsulfonamido)dispiro[cyclopropane-1,1′-cyclohexane-4′,3″-indoline]-1″-carbonyl)benzenesulfonamide] | 7.49 | 8.26 |  |
| CC(C)(C)NS(=O)(=O)c1cccc(C(=O)N2CC3(CCCCC3)c3cc(NS(C)(=O)=O)ccc32)c1 [Compound 26, N-(tert-butyl)-3-(5′-(methylsulfonamido)spiro[cyclohexane-1,3′-indoline]-1′-carbonyl)benzenesulfonamide] | 7.16 | 7.17 |  |
| CS(=O)(=O)Nc1ccc2c(c1)C1(CCC3(CC3)CC1)CN2C(=O)c1cccc([C@H](O)C2CCCC2)n1 (single isomer, unassigned) [Compound 317b] |  | 8.00 | koff (off-rate from binding kinetics assay) [1]: 9.72e-05 s⁻¹; kon (on-rate from binding kinetics assay) [1]: 16400 M⁻¹ s⁻¹; disc. t1/2 (dissociation half-life ln(2)/koff) [1]: 2.0 h; pKi [1]: 8.23 |
| O=C(c1cccc(S(=O)(=O)N2CCC(F)(F)CC2)c1)N1CC2(CCCC2)c2cc(NS(=O)(=O)CCO)ccc21 [Compound 27, N-(1′-(3-((4,4-difluoropiperidin-1-yl)sulfonyl)benzoyl)spiro[cyclopentane-1,3′-indolin]-5′-yl)-2-hydroxyethane-1-sulfonamide] |  |  | pIC50 (HCC15 cells; HCC15, 168 h): 6.85 |

Continued, in another order:

| pIC50 (HCC15 cells; [2]) | pIC50 (hKIF18A (1-374); [3]) | SMILES | further results |
| --- | --- | --- | --- |
|  | 7.10 | CS(=O)(=O)Nc1ccc2c(c1)C1(CCCC1)CN2C(=O)c1cccc(S(=O)(=O)N2CCC(F)(F)CC2)c1 [Compound 18, N-(1′-(3-((4,4-difluoropiperidin-1-yl)sulfonyl)benzoyl)spiro[cyclopentane-1,3′-indolin]-5′-yl)methanesulfonamide] | pIC50 (HCC15 cells; HCC15, 168 h): 6.80 |
| 7.42 | 7.89 | CC1CCC2(CC1)CN(C(=O)c1cccc(S(=O)(=O)NC(C)(C)C)c1)c1ccc(NS(C)(=O)=O)cc12 (centres unmarked) [Compound 140, N-(tert-butyl)-3-(4-methyl-5′-(methylsulfonamido)spiro[cyclohexane-1,3′-indoline]-1′-carbonyl)benzenesulfonamide] |  |
| 6.48 | 7.66 | O=C(c1cccc(S(=O)(=O)N2CCC(F)(F)CC2)c1)N1CC2(CCC3(CC3)CC2)c2cc(NS(=O)(=O)CCO)ccc21 [Compound 29, N-(1″-(3-((4,4-difluoropiperidin-1-yl)sulfonyl)benzoyl)dispiro[cyclopropane-1,1′-cyclohexane-4′,3″-indolin]-5″-yl)-2-hydroxyethane-1-sulfonamide] |  |
| 6.31 | 7.05 | CS(=O)(=O)Nc1ccc2c(c1)C1(CCCCC1)CN2C(=O)c1cccc([S+]([O-])C2CCCC2)c1 (centres unmarked) [Compound 43, N-(1′-(3-(cyclopentylsulfinyl)benzoyl)spiro [cyclohexane-1,3′-indolin]-5′-yl)methanesulfonamide] |  |
| 7.36 | 7.74 | CS(=O)(=O)Nc1ccc2c(c1)C1(CCC3(CC3)CC1)CN2C(=O)c1cccc(S(=O)(=O)N2CC3(CCO3)C2)c1 [Compound 153, N-(1″-(3-((1-oxa-6-azaspiro[3.3]heptan-6-yl)sulfonyl)benzoyl)dispiro[cyclopropane-1,1′-cyclohexane-4′,3″-indolin]-5″- yl)methanesulfonamide] |  |
| 5.66 | 6.57 | CC(C)(C)NS(=O)(=O)c1cccc(C(=O)N2CC3(CCC4(CC4)CC3)c3ccccc32)c1 [Compound 10, N-(tert-butyl)-3-(dispiro[cyclopropane-1,1′-cyclohexane-4′,3″-indoline]-1″- carbonyl)benzenesulfonamide] |  |
| 5.59 | 6.04 | O=C(Nc1cccc(C(=O)N2CC3(CCCC3)c3c(F)cccc32)c1)NC1CC1 [Compound 2′, 1-cyclopropyl-3-(3-(4′-fluorospiro[cyclopentane-1,3′-indolin]-1′-carbonyl)phenyl)urea] |  |
| 7.55 | 8.26 | CS(=O)(=O)Nc1ccc2c(c1)C1(CCC3(CC3)CC1)CN2C(=O)c1cccc(S(=O)(=O)NC2CCC2)c1 [Compound 168, N-cyclobutyl-3-(5″- (methylsulfonamido)dispiro[cyclopropane-1,1′-cyclohexane-4′,3″-indoline]-1″-carbonyl)benzenesulfonamide] |  |
| 7.60 | 7.89 | CS(=O)(=O)Nc1ccc2c(c1)C1(CCC3(CC3)CC1)CN2C(=O)c1cccc(S(=O)(=O)N2CCCCC2)c1 [Compound 20, N-(1″-(3-(piperidin-1-ylsulfonyl)benzoyl)dispiro[cyclopropane-1,1′-cyclohexane-4′,3″-indolin]-5″- yl)methanesulfonamide] |  |
| 5.68 | 6.44 | O=C(c1cccc(S(=O)(=O)N2CCC(F)(F)CC2)c1)N1CC2(CCC3(CC3)CC2)c2ccccc21 [Compound 4, (3-((4,4-difluoropiperidin-1-yl)sulfonyl)phenyl)(dispiro[cyclopropane-1,1′-cyclohexane-4′,3″-indolin]-1″- yl)methanone] |  |
|  | 7.35 | CS(=O)(=O)Nc1ccc2c(c1)C1(CCCCC1)CN2C(=O)c1cccc(S(=O)(=O)N2CC3(CCC3)C2)c1 [Compound 129, N-(1′-(3-((2-azaspiro[3.3]heptan-2-yl)sulfonyl)benzoyl)spiro[cyclohexane-1,3′-indolin]-5′-yL)methanesulfonamide] | kon (on-rate from binding kinetics assay) [1]: 12200 M⁻¹ s⁻¹; disc. t1/2 (dissociation half-life ln(2)/koff) [1]: 2.5 h; pKi [1]: 8.20; koff [1]: 7.78e-05 s⁻¹ |
|  | 7.10 | CCS(=O)(=O)Nc1ccc2c(c1)C1(CCC3(CC3)CC1)CN2C(=O)c1cc(S(=O)(=O)NC(C)(C)C)cs1 [Compound 269, N-(tert-butyl)-5-(5″- (ethylsulfonamido)dispiro[cyclopropane-1,1′-cyclohexane-4′,3″-indoline]-1″- carbonyl)thiophene-3-sulfonamide] | kon (on-rate from binding kinetics assay) [1]: 5560 M⁻¹ s⁻¹; disc. t1/2 (dissociation half-life ln(2)/koff) [1]: 8.7 h; pKi [1]: 8.40; koff [1]: 2.22e-05 s⁻¹ |
| 7.64 |  | CC1CCC2(CC1)CN(C(=O)c1cccc(S(=O)(=O)N3CCC(F)(F)CC3)c1)c1ccc(NS(C)(=O)=O)cc12 (centres unmarked) [Compound 24, N-(1′-(3-((4,4-difluoropiperidin-1-yl)sulfonyl)benzoyl)-4-methylspiro[cyclohexane-1,3′-indolin]-5′-yl)methanesulfonamide] | pIC50 (hKIF18A (1-374)): 8.00 |
